From PubChem BioAssay AID192 (DTP/NCI, 2004)
Inconclusive results and toxic doses are left out. Rule for the calls: active = survival T/C of 150% or more; inactive = T/C below 125% in these data.

Test system: BDF1 mice, B16 melanoma ip, median survival T/C
Assay: NCI In Vivo Anticancer Drug Screen. Data for tumor model B16 Melanoma (intraperitoneal) in B6D2F1 (BDF1) mice
Conditions: endpoint: median survival time, higher = longer survival
Procedure, shortened: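 Each result divides a survival or tumor-size measurement in the compound-treated group by the same measurement in the vehicle group.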

[1] = dose: 12.5 mg/kg/injection, schedule: Q01DX009 (ip), vehicle: saline
[2] = dose: 25.0 mg/kg/injection, schedule: Q01DX009 (ip), vehicle: saline
[3] = dose: 100.0 mg/kg/injection, schedule: Q01DX009 (ip), vehicle: Klucel (hydroxypropylcellulose) (HPC)
[4] = dose: 200.0 mg/kg/injection, schedule: Q01DX009 (ip), vehicle: Klucel (hydroxypropylcellulose) (HPC)
[5] = dose: 400.0 mg/kg/injection, schedule: Q01DX009 (ip), vehicle: Klucel (hydroxypropylcellulose) (HPC)
[6] = dose: 50.0 mg/kg/injection, schedule: Q01DX009 (ip), vehicle: saline with Tween-80

Measured: T/C

CCc1nc(N)nc(N)c1-c1ccc(Cl)cc1
inactive: dose: 4.0 mg/kg/injection, schedule: Q01DX009 (ip), vehicle: Klucel (hydroxypropylcellulose) (HPC) 93 % of control | dose: 4.0 mg/kg/injection, schedule: Q01DX009 (oral), vehicle: Klucel (hydroxypropylcellulose) (HPC) 102 % of control | dose: 4.0 mg/kg/injection, schedule: Q01DX009 (sc), vehicle: Klucel (hydroxypropylcellulose) (HPC) 90 % of control | dose: 4.0 mg/kg/injection, schedule: Q06HX004 (ip), vehicle: Klucel (hydroxypropylcellulose) (HPC) 107 % of control | dose: 4.0 mg/kg/injection, schedule: Q06HX008 (ip), vehicle: Klucel (hydroxypropylcellulose) (HPC) 91 % of control | dose: 8.0 mg/kg/injection, schedule: Q01DX009 (ip), vehicle: Klucel (hydroxypropylcellulose) (HPC) 95 % of control | dose: 8.0 mg/kg/injection, schedule: Q01DX009 (oral), vehicle: Klucel (hydroxypropylcellulose) (HPC) 100 % of control | dose: 8.0 mg/kg/injection, schedule: Q01DX009 (sc), vehicle: Klucel (hydroxypropylcellulose) (HPC) 92 % of control | dose: 8.0 mg/kg/injection, schedule: Q06HX004 (ip), vehicle: Klucel (hydroxypropylcellulose) (HPC) 90 % of control | dose: 8.0 mg/kg/injection, schedule: Q06HX008 (ip), vehicle: Klucel (hydroxypropylcellulose) (HPC) 104 % of control | dose: 8.0 mg/kg/injection, schedule: Q06HX012 (ip), vehicle: Klucel (hydroxypropylcellulose) (HPC) 100 % of control | dose: 16.0 mg/kg/injection, schedule: Q01DX001 (ip), vehicle: Klucel (hydroxypropylcellulose) (HPC) 96 % of control | dose: 16.0 mg/kg/injection, schedule: Q01DX001 (oral), vehicle: Klucel (hydroxypropylcellulose) (HPC) 106 % of control | dose: 16.0 mg/kg/injection, schedule: Q01DX001 (sc), vehicle: Klucel (hydroxypropylcellulose) (HPC) 113 % of control | dose: 16.0 mg/kg/injection, schedule: Q01DX009 (ip), vehicle: Klucel (hydroxypropylcellulose) (HPC) 113 % of control | dose: 16.0 mg/kg/injection, schedule: Q01DX009 (oral), vehicle: Klucel (hydroxypropylcellulose) (HPC) 113 % of control | dose: 16.0 mg/kg/injection, schedule: Q01DX009 (sc), vehicle: Klucel (hydroxypropylcellulose) (HPC) 98 % of control | dose: 16.0 mg/kg/injection, schedule: Q04DX003 (ip), vehicle: Klucel (hydroxypropylcellulose) (HPC) 86 % of control | dose: 16.0 mg/kg/injection, schedule: Q06HX004 (ip), vehicle: Klucel (hydroxypropylcellulose) (HPC) 98 % of control | dose: 16.0 mg/kg/injection, schedule: Q06HX008 (ip), vehicle: Klucel (hydroxypropylcellulose) (HPC) 108 % of control | dose: 16.0 mg/kg/injection, schedule: Q06HX012 (ip), vehicle: Klucel (hydroxypropylcellulose) (HPC) 87 % of control | dose: 16.0 mg/kg/injection, schedule: Q08DX002 (ip), vehicle: Klucel (hydroxypropylcellulose) (HPC) 87 % of control | dose: 32.0 mg/kg/injection, schedule: Q01DX001 (ip), vehicle: Klucel (hydroxypropylcellulose) (HPC) 96 % of control | dose: 32.0 mg/kg/injection, schedule: Q01DX001 (oral), vehicle: Klucel (hydroxypropylcellulose) (HPC) 104 % of control | dose: 32.0 mg/kg/injection, schedule: Q01DX001 (sc), vehicle: Klucel (hydroxypropylcellulose) (HPC) 117 % of control | dose: 32.0 mg/kg/injection, schedule: Q01DX009 (ip), vehicle: Klucel (hydroxypropylcellulose) (HPC) 102 % of control | dose: 32.0 mg/kg/injection, schedule: Q01DX009 (oral), vehicle: Klucel (hydroxypropylcellulose) (HPC) 120 % of control | dose: 32.0 mg/kg/injection, schedule: Q01DX009 (sc), vehicle: Klucel (hydroxypropylcellulose) (HPC) 103 % of control | dose: 32.0 mg/kg/injection, schedule: Q04DX003 (ip), vehicle: Klucel (hydroxypropylcellulose) (HPC) 100 % of control | dose: 32.0 mg/kg/injection, schedule: Q06HX008 (ip), vehicle: Klucel (hydroxypropylcellulose) (HPC) 100 % of control | dose: 32.0 mg/kg/injection, schedule: Q08DX002 (ip), vehicle: Klucel (hydroxypropylcellulose) (HPC) 102 % of control | dose: 64.0 mg/kg/injection, schedule: Q01DX001 (sc), vehicle: Klucel (hydroxypropylcellulose) (HPC) 117 % of control | dose: 64.0 mg/kg/injection, schedule: Q01DX009 (sc), vehicle: Klucel (hydroxypropylcellulose) (HPC) 101 % of control | dose: 64.0 mg/kg/injection, schedule: Q04DX003 (ip), vehicle: Klucel (hydroxypropylcellulose) (HPC) 100 % of control | dose: 64.0 mg/kg/injection, schedule: Q08DX002 (ip), vehicle: Klucel (hydroxypropylcellulose) (HPC) 100 % of control | dose: 128.0 mg/kg/injection, schedule: Q01DX001 (sc), vehicle: Klucel (hydroxypropylcellulose) (HPC) 106 % of control

COCC(O)Cn1ccnc1[N+](=O)[O-] (centres undefined)
inactive: [1] 111 % of control | dose: 12.5 mg/kg/injection, schedule: Q01DX009 (ip), vehicle: suspension in saline 124 % of control | dose: 12.5 mg/kg/injection, schedule: Q01DX009 (ip), vehicle: water 95 % of control | [2] 105 % of control | dose: 25.0 mg/kg/injection, schedule: Q01DX009 (ip), vehicle: suspension in saline 124 % of control | dose: 25.0 mg/kg/injection, schedule: Q01DX009 (ip), vehicle: water 100 % of control | dose: 50.0 mg/kg/injection, schedule: Q01DX009 (ip), vehicle: saline 107 % of control | dose: 50.0 mg/kg/injection, schedule: Q01DX009 (ip), vehicle: suspension in saline 103 % of control | dose: 50.0 mg/kg/injection, schedule: Q01DX009 (ip), vehicle: water 111 % of control | dose: 100.0 mg/kg/injection, schedule: Q01DX009 (ip), vehicle: saline 101 % of control | dose: 100.0 mg/kg/injection, schedule: Q01DX009 (ip), vehicle: suspension in saline 110 % of control | dose: 100.0 mg/kg/injection, schedule: Q01DX009 (ip), vehicle: water 100 % of control | dose: 200.0 mg/kg/injection, schedule: Q01DX009 (ip), vehicle: saline 107 % of control | dose: 200.0 mg/kg/injection, schedule: Q01DX009 (ip), vehicle: suspension in saline 124 % of control | dose: 200.0 mg/kg/injection, schedule: Q01DX009 (ip), vehicle: water 103 % of control | dose: 400.0 mg/kg/injection, schedule: Q01DX009 (ip), vehicle: saline 104 % of control | dose: 400.0 mg/kg/injection, schedule: Q01DX009 (ip), vehicle: water 100 % of control

Nc1ccc(OC(F)(F)C(F)Cl)cc1 (centres undefined)
inactive: [3] 86 % of control | [4] 96 % of control | [5] 103 % of control

CCCCCCCCCCCCCC(=O)N(C)C
inactive: [1] 97 % of control | [2] 97 % of control | [6] 93 % of control

ClC1OC(Cl)(Cl)C(Cl)(Cl)OC1(Cl)Cl (centres undefined)
inactive: [3] 93 % of control | [4] 93 % of control | [5] 86 % of control

CCCCC(SC(CC)(C(N)=O)c1ccccc1)C(=O)O (centres undefined)
inactive: [6] 100 % of control | dose: 100.0 mg/kg/injection, schedule: Q01DX009 (ip), vehicle: saline with Tween-80 99 % of control | dose: 200.0 mg/kg/injection, schedule: Q01DX009 (ip), vehicle: saline with Tween-80 92 % of control | dose: 400.0 mg/kg/injection, schedule: Q01DX009 (ip), vehicle: saline with Tween-80 90 % of control

CCC(N)Cc1ccc(OC)c(OC)c1 (centres undefined)
inactive: dose: 50.0 mg/kg/injection, schedule: Q01DX009 (ip), vehicle: Klucel (hydroxypropylcellulose) (HPC) 97 % of control | [3] 102 % of control | [4] 105 % of control
